Among the data in article PMC6370799, “Flavones hydroxylated at 5, 7, 3′ and 4′ ameliorate skin fibrosis via inhibiting activin receptor-like kinase 5 kinase activity” (Cell Death & Disease, 2019) are IC50 values, retold here.

For this assay, the target named is T1, activin receptor-like kinase 5 (ALK5) (Homo sapiens, UniProt P36897).
T1 construct: gene TGFBR1; GST-ALK5
T1 sequence (P36897 34-503): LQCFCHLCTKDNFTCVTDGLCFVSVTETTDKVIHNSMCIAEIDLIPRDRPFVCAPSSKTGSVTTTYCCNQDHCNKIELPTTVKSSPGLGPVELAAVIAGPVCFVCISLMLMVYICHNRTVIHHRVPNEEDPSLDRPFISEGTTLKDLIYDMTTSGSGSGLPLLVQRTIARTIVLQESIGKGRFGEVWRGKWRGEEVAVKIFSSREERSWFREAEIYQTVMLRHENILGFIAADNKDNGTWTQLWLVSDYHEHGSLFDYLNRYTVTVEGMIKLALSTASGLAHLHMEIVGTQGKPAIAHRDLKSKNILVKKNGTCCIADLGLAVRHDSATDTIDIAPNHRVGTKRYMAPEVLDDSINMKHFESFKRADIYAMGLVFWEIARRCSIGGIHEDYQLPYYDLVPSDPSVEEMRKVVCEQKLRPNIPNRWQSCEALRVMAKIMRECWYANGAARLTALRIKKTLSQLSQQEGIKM
Briefly: LanthaScreen Eu kinase binding assay (TR-FRET tracer displacement); also in vitro GST-Smad3 phosphorylation assay.

One may read the IC50 as the midpoint of a concentration-inhibition curve. On to `O=c1cc(-c2ccc(O)c(O)c2)oc2cc(O)cc(O)c12` [luteolin], for which the IC50 was 1060 nM. With `O=c1c(O)c(-c2ccc(O)c(O)c2)oc2cc(O)cc(O)c12` [quercetin] the figure was 1480 nM; with `O=c1c(O)c(-c2cc(O)c(O)c(O)c2)oc2cc(O)cc(O)c12` [myricetin], 4080 nM.
